Measurements: PubChem BioAssay AID504472 (NMMLSC, 2011)
The source made the active and inactive calls.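 The calls were made as follows: active = compound moving the GFP-tagged Gln3 signal into the yeast nucleus, as rapamycin does; inactive = the rest.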

System: S. cerevisiae Gln3-GFP nuclear translocation, microscopy
Assay: Gln3-GFP nuclear translocation in yeast, SAR follow-up, yeast TOR pathway modulator project, S. cerevisiae, GFP fusion, microscopy (AID 504472)
Conditions: at 30 µM; stronger effect = higher value

| Structure (SMILES) | nuclear translocation (1=yes) |
| --- | --- |
| CNc1nc(N)c([N+](=O)[O-])c(Nc2cccc(Cl)c2)n1 | 0 (inactive) |
| CNc1nc(N)c([N+](=O)[O-])c(Nc2ccccc2)n1 | 0 (inactive) |
| CNc1nc(N)c([N+](=O)[O-])c(Nc2cccc(F)c2)n1 | 0 (inactive) |
| CO[C@H]1C[C@@H]2CC[C@@H](C)[C@@](O)(O2)C(=O)C(=O)N2CCCC[C@H]2C(=O)O[C@H]([C@H](C)C[C@@H]2CC[C@@H](O)[C@H](OC)C2)CC(=O)[C@H](C)/C=C(\C)[C@@H](O)[C@@H](OC)C(=O)[C@H](C)C[C@H](C)/C=C/C=C/C=C/1C | 1 |
